Reference: the NIST ThermoML archive (doi:10.1016/j.fluid.2005.12.004)
Numbers after ± are expanded uncertainties.

Conditions: Liquid, Closed cell (Static) method

## FC(F)(F)C(F)(F)F [hexafluoroethane]
189.31 K
  vapor or sublimation pressure: 73.9 ± 4 kPa
192.63 K
  vapor or sublimation pressure: 88.5 ± 4 kPa
247.63 K
  vapor or sublimation pressure: 883 ± 4.8 kPa
252.8 K
  vapor or sublimation pressure: 1038.2 ± 5 kPa
